In patent US12312359B2 (Vitae Pharmaceuticals, LLC, priority 2016, dated 2025):
pEC50, pIC50: −log10 of the molar value.

Columns and labels:
[1] = tested on: human acute monocytic leukemia cell line MV-4-11; test: Assay 2: cell proliferation assay (ATP quantitation, CellTiter-Glo), MV-4-11; assay type: cell-based; settings: Homo sapiens, MV4-11, 72 h, MV-4-11 cells
In short: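 MV-4-11 cells, 1.67×10^4 per well in medium with 10% FBS, were exposed to compound for 72 h at 37° C., 5% CO2; HL-60 cells served as toxicity control. Proliferation read as ATP content by CellTiter-Glo luminescence.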

[2] = target: T1, biotinylated wild-type menin and MLL-AF9 fusion protein (menin/MLL binding) (Homo sapiens, UniProt O00255); test: Assay 1: menin/MLL binding AlphaLISA assay, wild-type menin; settings: Table 30; column head does not say wild-type or mutated menin
T1 construct: made in house; host or cells: menin: E. coli; MLL-AF9-FLAG: HEK293 cells, used as cleared lysate
T1 sequence (O00255 1-610): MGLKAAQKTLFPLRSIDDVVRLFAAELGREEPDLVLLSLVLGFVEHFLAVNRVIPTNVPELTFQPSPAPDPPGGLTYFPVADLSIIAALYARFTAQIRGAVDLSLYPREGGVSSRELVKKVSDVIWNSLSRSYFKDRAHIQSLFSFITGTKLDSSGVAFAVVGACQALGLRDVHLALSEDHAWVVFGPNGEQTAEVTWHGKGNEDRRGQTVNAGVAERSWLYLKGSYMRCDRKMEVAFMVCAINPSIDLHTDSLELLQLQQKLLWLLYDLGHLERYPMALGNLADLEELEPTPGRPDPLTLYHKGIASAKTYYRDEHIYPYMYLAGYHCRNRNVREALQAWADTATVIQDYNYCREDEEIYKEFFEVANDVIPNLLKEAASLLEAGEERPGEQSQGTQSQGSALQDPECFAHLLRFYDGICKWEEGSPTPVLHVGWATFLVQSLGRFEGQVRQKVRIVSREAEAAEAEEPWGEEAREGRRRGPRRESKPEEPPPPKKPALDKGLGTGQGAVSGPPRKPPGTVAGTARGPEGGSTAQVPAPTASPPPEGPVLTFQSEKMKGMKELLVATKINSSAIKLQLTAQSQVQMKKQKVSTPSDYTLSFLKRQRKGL
In short: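 Compound was preincubated 30 min at room temperature with biotinylated menin (5 nM) and MLL-AF9-FLAG lysate from HEK293 cells, pH 7.4 buffer with 5% DMSO and DTT. Bead-based Alpha signal after 60 min with streptavidin donor and anti-FLAG acceptor beads; four-parameter logistic fit gave IC50.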

| pEC50 [1] | pIC50 [2] | SMILES |
| --- | --- | --- |
| 6.00 to 7.00 | > 7.00 | CC(C)Oc1ncccc1-c1cc(F)ccc1Oc1cncnc1N1CC2(CN(CC3CCOCC3)C2)C1 [Example 162, 2-(5-(4-fluoro-2-(2-isopropoxypyridin-3-yl)phenoxy)pyrimidin-4-yl)-6-((tetrahydro-2H-pyran-4-yl)methyl)-2,6-diazaspiro[3.3]heptane] |
| 6.00 to 7.00 | > 7.00 | CC(C)N(C)C(=O)c1cc(F)ccc1Oc1cncnc1N1CCC2(CCN(Cc3ccc4c(c3)[nH]c(=O)n4C)C2)C1 (stereo not drawn) [Example 163, 5-fluoro-N-isopropyl-N-methyl-2-((4-(7-((1-methyl-2-oxo-2,3-dihydro-1H-benzo[d]imidazol-5-yl)methyl)-2,7-diazaspiro[4.4]nonan-2-yl)pyrimidin-5-yl)oxy)benzamide] |
| 6.00 to 7.00 | > 7.00 | CCOC(=O)N(C)c1cc(F)ccc1Oc1cncnc1N1CCC2(CCN(Cc3ccc4[nH]c(=O)[nH]c4c3)C2)C1 (stereo not drawn) [Example 164, ethyl (5-fluoro-2-((4-(7-((2-oxo-2,3-dihydro-1H-benzo[d]imidazol-5-yl)methyl)-2,7-diazaspiro[4.4]nonan-2-yl)pyrimidin-5-yl)oxy)phenyl) (methyl)carbamate] |
| ≤ 6.00 | > 7.00 | CN(C(=O)c1cc(F)ccc1Oc1cncnc1N1CCC2(CCN(Cc3ccc4[nH]c(=O)[nH]c4c3)C2)C1)C1CC1 (stereo not drawn) [Example 165, N-cyclopropyl-5-fluoro-N-methyl-2-((4-(7-((2-oxo-2,3-dihydro-1H-benzo[d]imidazol-5-yl)methyl)-2,7-diazaspiro[4.4]nonan-2-yl)pyrimidin-5-yl)oxy)benzamide] |
| 6.00 to 7.00 | > 7.00 | CN(C(=O)c1cc(F)ccc1Oc1cncnc1N1CCC2(CCN(Cc3ccc4[nH]c(=O)[nH]c4c3)C2)C1)c1ccccc1 (stereo not drawn) [Example 166, 5-fluoro-N-methyl-2-((4-(7-((2-oxo-2,3-dihydro-1H-benzo[d]imidazol-5-yl)methyl)-2,7-diazaspiro[4.4]nonan-2-yl)pyrimidin-5-yl)oxy)-N-phenylbenzamide] |
| 6.00 to 7.00 | > 7.00 | CC(C)N(C)C(=O)c1cc(F)ccc1Oc1cncnc1N1CC2(CN(CC3CCCCC3)C2)C1 [Example 167, 2-((4-(6-(cyclohexylmethyl)-2,6-diazaspiro[3.3]heptan-2-yl)pyrimidin-5-yl)oxy)-5-fluoro-N-isopropyl-N-methylbenzamide] |
| ≤ 6.00 | > 7.00 | Fc1ccc(Oc2cncnc2N2CC3(CN(CC4CCOCC4)C3)C2)c(OC2CCCC2)c1 [Example 168, 2-(5-(2-(cyclopentyloxy)-4-fluorophenoxy)pyrimidin-4-yl)-6-((tetrahydro-2H-pyran-4-yl)methyl)-2,6-diazaspiro[3.3]heptane] |
| > 7.00 | > 7.00 | N#Cc1ccc(-c2cc(F)ccc2Oc2cncnc2N2CCC3(CCN(Cc4ccc5oc(=O)[nH]c5c4)C3)C2)c(C2CC2)c1 (stereo not drawn) [Example 169, 2-cyclopropyl-5′-fluoro-2′-((4-(7-((2-oxo-2,3-dihydrobenzo[d]oxazol-5-yl)methyl)-2,7-diazaspiro[4.4]nonan-2-yl)pyrimidin-5-yl)oxy)-[1,1′-biphenyl]-4-carbonitrile] |
| 6.00 to 7.00 | > 7.00 | COC(=O)Nc1cccc(CN2CCC3(CCN(c4ncncc4Oc4ccc(F)cc4-c4ccc(C#N)cc4C4CC4)C3)C2)c1 (stereo not drawn) [Example 170, methyl (3-((7-(5-((4′-cyano-2′-cyclopropyl-5-fluoro-[1,1′-biphenyl]-2-yl)oxy)pyrimidin-4-yl)-2,7-diazaspiro[4.4]nonan-2-yl)methyl)phenyl) carbamate] |
| > 7.00 | > 7.00 | N#Cc1ccc(-c2cc(F)ccc2Oc2cncnc2N2CCC3(CCN(Cc4ccc5nn[nH]c5c4)C3)C2)c(C2CC2)c1 (stereo not drawn) [Example 171, 2′-((4-(7-((1H-benzo[d][1,2,3]triazol-6-yl)methyl)-2,7-diazaspiro[4.4]nonan-2-yl)pyrimidin-5-yl)oxy)-2-cyclopropyl-5′-fluoro-[1,1′-biphenyl]-4-carbonitrile] |
| 6.00 to 7.00 | > 7.00 | CC(=O)Nc1ccc(CN2CCC3(CCN(c4ncncc4Oc4ccc(F)cc4-c4ccc(C#N)cc4C4CC4)C3)C2)cc1Cl (stereo not drawn) [Example 172, N-(2-chloro-4-((7-(5-((4′-cyano-2′-cyclopropyl-5-fluoro-[1,1′-biphenyl]-2-yl)oxy)pyrimidin-4-yl)-2,7-diazaspiro[4.4]nonan-2-yl)methyl)phenyl) acetamide] |
| 6.00 to 7.00 | > 7.00 | CCN(CC)C(=O)c1cc(F)ccc1Oc1cncnc1N1CCC2(CCN(Cc3ccc4[nH]c(=O)[nH]c4c3)C2)C1 (stereo not drawn) [Example 173, N,N-diethyl-5-fluoro-2-((4-(7-((2-oxo-2,3-dihydro-1H-benzo[d]imidazol-5-yl)methyl)-2,7-diazaspiro[4.4]nonan-2-yl)pyrimidin-5-yl)oxy)benzamide] |
| > 7.00 | > 7.00 | CC(C)N(C)C(=O)c1cc(F)ccc1Oc1cncnc1N1CCC2(CCN(Cc3ccc4oc(=O)[nH]c4c3)C2)C1 (stereo not drawn) [Example 174, 5-fluoro-N-isopropyl-N-methyl-2-((4-(7-((2-oxo-2,3-dihydrobenzo[d]oxazol-5-yl)methyl)-2,7-diazaspiro[4.4]nonan-2-yl)pyrimidin-5-yl)oxy)benzamide] |
| ≤ 6.00 | > 7.00 | CN(C(=O)c1cc(F)ccc1Oc1cncnc1N1CCC2(CCN(Cc3ccc4[nH]c(=O)[nH]c4c3)C2)C1)C(C)(C)C (stereo not drawn) [Example 175, N-(tert-butyl)-5-fluoro-N-methyl-2-((4-(7-((2-oxo-2,3-dihydro-1H-benzo[d]imidazol-5-yl)methyl)-2,7-diazaspiro[4.4]nonan-2-yl)pyrimidin-5-yl)oxy)benzamide] |
| ≤ 6.00 | > 7.00 | CC(C)c1ncncc1-c1cc(F)ccc1Oc1cncnc1N1CCC2(CCN(CC(C)(C)O)C2)C1 (stereo not drawn) [Example 176, 1-(7-(5-(4-fluoro-2-(4-isopropylpyrimidin-5-yl)phenoxy)pyrimidin-4-yl)-2,7-diazaspiro[4.4]nonan-2-yl)-2-methylpropan-2-ol] |
| > 7.00 | > 7.00 | Fc1ccc(Oc2cncnc2N2CC3(CN(CC4CCOCC4)C3)C2)c(-c2cccnc2C2CC2)c1 [Example 177, 2-(5-(2-(2-cyclopropylpyridin-3-yl)-4-fluorophenoxy)pyrimidin-4-yl)-6-((tetrahydro-2H-pyran-4-yl)methyl)-2,6-diazaspiro[3.3] heptane] |
| > 7.00 | > 7.00 | CC(C)c1ncncc1-c1cc(F)ccc1Oc1cncnc1N1CCC2(CCN(Cc3ccc4c(c3)NC(=O)C4(C)C)C2)C1 (stereo not drawn) [Example 178, 6-((7-(5-(4-fluoro-2-(4-isopropylpyrimidin-5-yl)phenoxy)pyrimidin-4-yl)-2,7-diazaspiro[4.4]nonan-2-yl)methyl)-3,3-dimethylindolin-2-one] |
| > 7.00 | > 7.00 | CC1(C)C(=O)Nc2cc(CN3CCC4(CCN(c5ncncc5Oc5ccc(F)cc5-c5cccnc5C5CC5)C4)C3)ccc21 (stereo not drawn) [Example 179, 6-((7-(5-(2-(2-cyclopropylpyridin-3-yl)-4-fluorophenoxy)pyrimidin-4-yl)-2,7-diazaspiro[4.4]nonan-2-yl)methyl)-3,3-dimethylindolin-2-one] |
